According to PMC7698783, “Performance of Population Pharmacokinetic Models in Predicting Polymyxin B Exposures” (Microorganisms, 2020):
Several values for one entry are separate records, joined by “and”; a condition that tells them apart may be missing. Identical values can stand only once. Positions of bridges follow the written chain, without caps; N, C: chain ends. Non-standard residues stand in square brackets, D forms with d. Residues, ends and D or L forms follow the SMILES beside them. *: point of attachment. X1 = CC[C@H](C)CCCCC(=O)*; Dab = NCC[C@H](N)C(=O)O

What was measured:
[1] = Steady-state plasma pharmacokinetics of intravenous polymyxin B in adult patients (LC-MS/MS, ADAPT 5 compartment fitting); type: in vivo; settings: human, one-compartment model, 13 adult patients, i.v. every 12 h, median, read-out: best-fit elimination half-life (median) (converted)
Protocol: This was a prospective observational study. The study was conducted from March 2016 to March 2018 at two major teaching hospitals in Singapore: Tan Tock Seng Hospital (TTSH) and Singapore General Hospital (SGH). Adult patients (21 years of age or greater) who received intravenous polymyxin B (USP) for the treatment of suspected or confirmed bacterial infections were enrolled. The dose, dosing interval, and infusion duration of polymyxin B administration were as prescribed by the respective attending medical teams. Patients who were pregnant, on dialysis, with burns or spinal cord injury were excluded.
For each subject, four blood samples were obtained serially over one dosing interval at steady state (presumably after the third day of therapy). Since the dosing regimens were not standardized, a sampling scheme spanning the samples over the dosing interval was adopted to accommodate different scenarios. Sample 1 was obtained within 0.5 h prior to the next scheduled dose, sample 2 was obtained 0.5–1 h after the end of drug administration, sample 3 was obtained 3–8 h after the end of drug administration, and sample 4 was obtained within 4 h prior to the next scheduled dose. All samples were specifically timed in relation to drug administration. […] Polymyxin B concentrations in plasma samples were determined using a validated liquid chromatography tandem mass spectrometry method. […]

[2] = 3 population PK studies, no demographic variables linked to total clearance; cited from earlier work
Excerpt: In contrast, body weight was linked to total clearance in a study using a two-compartment model. Finally, creatinine clearance had been linked to total clearance of polymyxin B in cystic fibrosis patients. || There were several limitations in our study. Only a limited number of (primarily male) patients were enrolled with standard clinical dosing and dosing frequency. The robustness of our conclusion would be enhanced with a larger sample size and a wider range of dosing regimens. Also, the observed AUC values for comparison were based only 4 data points over a single dosing interval.

For `CC[C@H](C)CCCCC(=O)N[C@@H](CCN)C(=O)N[C@H](C(=O)N[C@@H](CCN)C(=O)N[C@H]1CCNC(=O)[C@H]([C@@H](C)O)NC(=O)[C@H](CCN)NC(=O)[C@H](CCN)NC(=O)[C@H](CC(C)C)NC(=O)[C@@H](Cc2ccccc2)NC(=O)[C@H](CCN)NC1=O)[C@@H](C)O` [polymyxin B] (X1-[Dab]T[Dab][Dab][Dab][dF]L[Dab][Dab]T; lactam 4-C), the half-life [1] is listed as 6.8 h and the “estimates of clearance (total clearance) in population pharmacokinetic studies” value [2] is listed as 2.4 L/h and 2.5 L/h and 2.6 L/h.
